Results from EPA's CvTdb concentration-time database.
“And” between values parts separate entries of the source, which are not always exact repeats. Equal values may be shown once.

How the values were obtained:
rat [1] = assay: concentration in blood after dosing; negative times count back from the end of exposure; conditions: dosed: tert-amyl methyl ether, inhalation, duration: 6 hr, male, F344 (Charles River)
Rat [2] = assay: concentration in plasma after dosing
Rat [3] = assay: concentration in brain after dosing; conditions: dosed: 2-Methyltetrahydrofuran, 40 mg/kg, iv, Harlan Sprague Dawley

CCC(C)(C)O [tertiary amyl alcohol]
rat [1]
Conditions | concentration in blood [ng/mL]
0.1349 h, 100 ppm | 3120
0.1606 h, 500 ppm | 18700
0.161 h, 100 ppm | 2610
0.1742 h, 500 ppm | 28700
0.1776 h, 100 ppm | 4090
0.1793 h, 100 ppm | 3740
0.2114 h, 500 ppm | 25900
0.3273 h, 2500 ppm | 96000
0.3463 h, 2500 ppm | 119000
0.3468 h, 100 ppm | 3320
0.3507 h, 100 ppm | 2500
0.3521 h, 500 ppm | 18700
0.3559 h, 2500 ppm | 101000
0.358 h, 500 ppm | 33000
0.3593 h, 500 ppm | 32300
0.3685 h, 100 ppm | 3740
0.369 h, 100 ppm | 3620
0.3717 h, 500 ppm | 25500
0.8785 h, 2500 ppm | 113000
0.8797 h, 2500 ppm | 110000
0.8894 h, 2500 ppm | 91700
0.8908 h, 2500 ppm | 89100
0.9009 h, 100 ppm | 1190
0.9009 h, 500 ppm | 15400
0.9138 h, 500 ppm | 25900
0.9151 h, 500 ppm | 25100
0.9198 h, 100 ppm | 2180
0.9217 h, 500 ppm | 21500
0.9218 h, 100 ppm | 1760
1.789 h, 2500 ppm | 96800
1.799 h, 2500 ppm | 76700
1.823 h, 100 ppm | 1290
1.824 h, 2500 ppm | 89300
2.017 h, 500 ppm | 16200
2.018 h, 500 ppm | 15400
2.026 h, 500 ppm | 11400
3.851 h, 500 ppm | 8400
3.852 h, 500 ppm | 7720
3.858 h, 500 ppm | 4810
3.985 h, 2500 ppm | 61200
3.989 h, 2500 ppm | 52300
3.99 h, 2500 ppm | 49700
3.991 h, 2500 ppm | 48600
9.831 h, 2500 ppm | 3190
9.837 h, 500 ppm | 123
17.91 h, 500 ppm | 185
36 s, 100 ppm | 4500

rat [1], during exposure
Conditions | concentration in blood
-112 s, 100 ppm | 3220 ng/mL
-97 s, 100 ppm | 2350 ng/mL
-51 s, 500 ppm | 27000 ng/mL
-36 s, 100 ppm | 3730 ng/mL
-27 s, 500 ppm | 23300 ng/mL
-5.969 h, 2500 ppm | 2030 ng/mL
-5.968 h, 2500 ppm | 298 ng/mL
-5.931 h, 100 ppm | 373 ng/mL
-5.788 h, 100 ppm | 269 ng/mL
-5.779 h, 500 ppm | 1540 ng/mL
-5.777 h, 500 ppm | 432 ng/mL
-5.722 h, 2500 ppm | 4830 ng/mL
-5.695 h, 100 ppm | 530 ng/mL
-5.662 h, 2500 ppm | 10000 ng/mL
-5.661 h, 2500 ppm | 6980 ng/mL
-5.626 h, 100 ppm | 895 ng/mL
-5.601 h, 100 ppm | 790 ng/mL
-5.589 h, 500 ppm | 2720 ng/mL
-5.079 h, 2500 ppm | 24900 ng/mL
-5.077 h, 2500 ppm | 21200 ng/mL
-5.075 h, 2500 ppm | 17100 ng/mL
-5.019 h, 500 ppm | 5250 ng/mL
-5.017 h, 500 ppm | 4200 ng/mL
-5.015 h, 100 ppm | 1710 ng/mL
-5.013 h, 100 ppm | 1350 ng/mL
-5.012 h, 100 ppm | 1200 ng/mL
-5.011 h, 100 ppm | 882 ng/mL
-4.072 h, 100 ppm | 2490 ng/mL
-4.07 h, 100 ppm | 2010 ng/mL
-4.069 h, 100 ppm | 1890 ng/mL and 1860 ng/mL
-3.994 h, 2500 ppm | 30900 ng/mL
-3.993 h, 2500 ppm | 29600 ng/mL
-3.992 h, 2500 ppm | 28500 ng/mL
-3.908 h, 500 ppm | 8890 ng/mL
-3.906 h, 500 ppm | 7410 ng/mL
-2.076 h, 500 ppm | 19600 ng/mL
-2.075 h, 500 ppm | 19000 ng/mL
-2.065 h, 100 ppm | 3210 ng/mL
-2.062 h, 100 ppm | 2590 ng/mL
-2.061 h, 100 ppm | 2340 ng/mL
-2.046 h, 100 ppm | 4250 ng/mL
-2.018 h, 2500 ppm | 59800 ng/mL
-2.017 h, 2500 ppm | 58900 ng/mL
-2 h, 2500 ppm | 84600 ng/mL
-1.996 h, 2500 ppm | 78100 ng/mL
-0.2032 h, 2500 ppm | 99500 ng/mL
-0.1979 h, 2500 ppm | 89100 ng/mL
-0.1701 h, 2500 ppm | 95600 ng/mL
-0.031 h, 500 ppm | 18700 ng/mL

Cc1ccc(C)c(OCCCC(C)(C)C(=O)O)c1 [Gemfibrozil]
concentration in plasma [ng/mL], Rat [2], dosed: Gemfibrozil, oral, Male, Sprague-Dawley
Conditions | 4.29 mg/kg | 50 mg/kg | 100 mg/kg
0.25 h | 250 | 17900 | 67400
0.5 h | 314 | 15700 | 34600
1 h | 147 | 5640 | 26200
2 h | 307 | 3310 | 8500
4 h | 566 | 8040 | 6870
5 min | 395 | 1580 | 13300
6 h | 401 | 9040 | 19600
10 h | 286 | 4860 | –
10 min | 2260 | 7420 | 40200
15 h | 137 | 1870 | –
18 h | 108 | 975 | 2190
24 h | 128 | 920 | 1800

CC1CCCO1 (stereo not given) [2-Methyltetrahydrofuran]
concentration in plasma [ng/mL], Rat [2], dosed: 2-Methyltetrahydrofuran, 40 mg/kg, iv, Harlan Sprague Dawley
Conditions | 0.2 h | 0.5 h | 0.75 h | 1.5 h | 2 h | 2 min | 4 h | 6 h | 7 min
Female | – | 27200 | – | – | 7560 | 73300 | 101 | 13.3 | –
Male | 35000 | 32200 | 24000 | 14000 | 10700 | 50000 | 977 | 8.93 | 46500

concentration in brain [ng/mL], Rat [3]
Conditions | 0.2 h | 0.5 h | 0.75 h | 1.5 h | 2 h | 2 min | 4 h | 6 h | 7 min
Female | – | 15400 | – | – | 5700 | 41700 | 73.6 | – | –
Male | 24700 | 13500 | 22000 | 9210 | 9630 | 32400 | 356 | 21.5 | 29700

CCC(C)(C)OC [tertiary amyl methyl ether]
rat [1]
Conditions | concentration in blood
0.2936 h, 2500 ppm | 40100 ng/mL
0.2946 h, 2500 ppm | 38200 ng/mL
0.2952 h, 2500 ppm | 37100 ng/mL
0.4294 h, 100 ppm | 828 ng/mL
0.4521 h, 100 ppm | 1040 ng/mL
0.454 h, 100 ppm | 626 ng/mL
0.4709 h, 500 ppm | 5800 ng/mL
0.4728 h, 500 ppm | 4750 ng/mL
0.4735 h, 500 ppm | 4380 ng/mL
0.8269 h, 2500 ppm | 31500 ng/mL
0.8277 h, 2500 ppm | 30000 ng/mL
0.8285 h, 2500 ppm | 28500 ng/mL
0.8324 h, 2500 ppm | 20900 ng/mL
0.9984 h, 100 ppm | 528 ng/mL
0.9987 h, 100 ppm | 470 ng/mL
0.9992 h, 100 ppm | 366 ng/mL
1.018 h, 500 ppm | 3640 ng/mL and 3270 ng/mL
1.021 h, 500 ppm | 1850 ng/mL
1.733 h, 100 ppm | 268 ng/mL
1.755 h, 100 ppm | 523 ng/mL
1.756 h, 100 ppm | 418 ng/mL
1.756 h, 500 ppm | 1480 ng/mL
1.757 h, 500 ppm | 741 ng/mL
1.926 h, 2500 ppm | 12000 ng/mL
1.927 h, 2500 ppm | 9450 ng/mL
1.928 h, 2500 ppm | 6650 ng/mL
3.92 h, 2500 ppm | 4450 ng/mL
3.921 h, 2500 ppm | 2070 ng/mL
3.993 h, 500 ppm | 370 ng/mL
9.964 h, 500 ppm | 61.7 ng/mL
17.98 h, 2500 ppm | 42 ng/mL
176 s, 100 ppm | 1240 ng/mL
260 s, 100 ppm | 1350 ng/mL
269 s, 100 ppm | 782 ng/mL
284 s, 500 ppm | 10600 ng/mL
292 s, 500 ppm | 9510 ng/mL
299 s, 500 ppm | 8400 ng/mL
309 s, 500 ppm | 6910 ng/mL

rat [1], during exposure
Conditions | concentration in blood
-254 s, 2500 ppm | 82700 ng/mL
-248 s, 2500 ppm | 79200 ng/mL
-228 s, 500 ppm | 18600 ng/mL
-5.888 h, 2500 ppm | 24900 ng/mL
-5.887 h, 100 ppm | 1060 ng/mL
-5.887 h, 2500 ppm | 22400 ng/mL
-5.886 h, 2500 ppm | 20000 ng/mL
-5.884 h, 2500 ppm | 17200 ng/mL
-5.883 h, 2500 ppm | 14400 ng/mL
-5.878 h, 500 ppm | 2960 ng/mL
-5.864 h, 100 ppm | 1190 ng/mL
-5.863 h, 100 ppm | 1130 ng/mL
-5.858 h, 2500 ppm | 27500 ng/mL
-5.853 h, 500 ppm | 6980 ng/mL
-5.85 h, 500 ppm | 5560 ng/mL
-5.848 h, 500 ppm | 4010 ng/mL
-5.841 h, 100 ppm | 1460 ng/mL
-5.522 h, 2500 ppm | 37700 ng/mL
-5.521 h, 2500 ppm | 36200 ng/mL
-5.494 h, 2500 ppm | 44100 ng/mL
-5.492 h, 2500 ppm | 41100 ng/mL
-5.475 h, 500 ppm | 9570 ng/mL
-5.474 h, 500 ppm | 9200 ng/mL
-5.464 h, 100 ppm | 1660 ng/mL and 1610 ng/mL
-5.442 h, 100 ppm | 2030 ng/mL
-5.158 h, 2500 ppm | 56700 ng/mL
-5.157 h, 2500 ppm | 55100 ng/mL
-5.131 h, 2500 ppm | 64200 ng/mL
-5.129 h, 2500 ppm | 60300 ng/mL
-5.111 h, 100 ppm | 2080 ng/mL
-5.109 h, 100 ppm | 1560 ng/mL
-5.099 h, 500 ppm | 13500 ng/mL
-5.093 h, 500 ppm | 10600 ng/mL
-5.092 h, 100 ppm | 3060 ng/mL
-5.089 h, 100 ppm | 2490 ng/mL
-4.169 h, 100 ppm | 2960 ng/mL
-4.167 h, 100 ppm | 2490 ng/mL
-4.165 h, 100 ppm | 2180 ng/mL
-4.07 h, 100 ppm | 1980 ng/mL
-4.067 h, 2500 ppm | 51500 ng/mL
-4.046 h, 2500 ppm | 72000 ng/mL
-4.045 h, 2500 ppm | 69400 ng/mL
-4.044 h, 2500 ppm | 66600 ng/mL
-4.016 h, 500 ppm | 15000 ng/mL
-3.979 h, 500 ppm | 12000 ng/mL
-2.249 h, 2500 ppm | 85700 ng/mL
-2.248 h, 2500 ppm | 83400 ng/mL
-1.978 h, 500 ppm | 17800 ng/mL
-1.975 h, 500 ppm | 16400 ng/mL
-1.969 h, 100 ppm | 2860 ng/mL
-1.968 h, 100 ppm | 2600 ng/mL
-1.948 h, 100 ppm | 3320 ng/mL
-1.945 h, 100 ppm | 2760 ng/mL
-0.1231 h, 500 ppm | 16400 ng/mL
-0.1186 h, 500 ppm | 13900 ng/mL
-0.1052 h, 2500 ppm | 89600 ng/mL
-0.1033 h, 100 ppm | 3440 ng/mL
-0.1027 h, 100 ppm | 3320 ng/mL
-0.1027 h, 2500 ppm | 84600 ng/mL
-0.1008 h, 100 ppm | 2910 ng/mL
